Results reported in patent US11497212B2, “Substituted thiophenyl uracils, salts thereof and the use thereof as herbicidal agents” (Syngenta Crop Protection AG, priority 2017, dated 2022).

Tests used:
Assay type in all cases: in vivo
Abutilon theophrasti [1] = test: Herbicidal action post-emergence (greenhouse pot trial); conditions: application rate 80 g/ha, scored visually after about 3 weeks vs untreated controls
In short: (§1)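 One-leaf-stage seedlings, 2–3 weeks old, are treated on their green parts with an aqueous emulsion or suspension of the test compound (WP or EC, 0.5% additive) using 600 L/ha of water at up to 80 g/ha. About 3 weeks on, percent kill is estimated visually versus untreated plants.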

Amaranthus retroflexus [2] = test: as above; conditions: application rate 80 g/ha, scored visually after about 3 weeks vs untreated controls
In short: as §1

Echinochloa crus-galli [3] = test: as above; conditions: application rate 80 g/ha, scored visually after about 3 weeks vs untreated controls
In short: as §1

Matricaria inodora [4] = test: as above; conditions: application rate 80 g/ha, scored visually after about 3 weeks vs untreated controls
In short: as §1

Pharbitis purpurea [5] = test: as above; conditions: application rate 80 g/ha
In short: as §1

Polygonum convolvulus = test: as above; conditions: application rate 80 g/ha, scored visually after about 3 weeks vs untreated controls
In short: as §1

Setaria viridis [6] = test: as above; conditions: application rate 80 g/ha, scored visually after about 3 weeks vs untreated controls
In short: as §1

Stellaria media [7] = test: as above; conditions: application rate 80 g/ha, scored visually after about 3 weeks vs untreated controls
In short: as §1

Veronica persica [8] = test: as above; conditions: application rate 80 g/ha
In short: as §1

Viola tricolor [9] = test: as above; conditions: application rate 80 g/ha
In short: as §1

Glycine max [10] = test: Crop compatibility post-emergence (greenhouse pot trial)
In short: (§2)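 Crop seeds sown in sandy loam and grown in the greenhouse 2 to 3 weeks were treated at the one-leaf stage. WP or EC formulations were sprayed as aqueous suspension/emulsion with 0.5% additive at 600 L/ha. Damage was scored visually about 3 weeks later versus untreated controls (0% = like control, 100% = dead).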

Oryza sativa = test: as above
In short: as §2

Zea mays [11] = test: as above
In short: as §2

Abutilon theophrasti [12] = test: Herbicidal action pre-emergence (greenhouse pot trial); conditions: application rate 320 g/ha, scored after about 3 weeks
In short: (§3)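 Efficacy (%) was estimated visually about 3 wk post-application by comparing treated pots with untreated controls, where 0% denotes plants resembling controls and 100% denotes dead plants. Dose was 320 g/ha or less.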

Amaranthus retroflexus [13] = test: as above; conditions: application rate 320 g/ha, scored after about 3 weeks
In short: as §3

Avena fatua = test: as above; conditions: application rate 320 g/ha
In short: as §3

Cyperus esculentus = test: as above; conditions: application rate 320 g/ha
In short: as §3

Echinochloa crus-galli [14] = test: as above; conditions: application rate 320 g/ha, scored after about 3 weeks
In short: as §3

Hordeum murinum [15] = test: as above; conditions: application rate 320 g/ha
In short: as §3

Lolium rigidum [16] = test: as above; conditions: application rate 320 g/ha
In short: as §3

Matricaria inodora [17] = test: as above; conditions: application rate 320 g/ha, scored after about 3 weeks
In short: as §3

Pharbitis purpurea [18] = test: as above; conditions: application rate 320 g/ha
In short: as §3

Setaria viridis [19] = test: as above; conditions: application rate 320 g/ha, scored after about 3 weeks
In short: as §3

Stellaria media [20] = test: as above; conditions: application rate 320 g/ha, scored after about 3 weeks
In short: as §3

Veronica persica [21] = test: as above; conditions: application rate 320 g/ha
In short: as §3

Viola tricolor [22] = test: as above; conditions: application rate 320 g/ha, scored after about 3 weeks
In short: as §3

Alopecurus myosuroides [23] = test: Herbicidal action post-emergence (greenhouse pot trial); conditions: application rate 80 g/ha, scored visually after about 3 weeks vs untreated controls
In short: as §1

Lolium rigidum [24] = test: as above; conditions: application rate 80 g/ha, scored visually after about 3 weeks vs untreated controls
In short: as §1

Triticum aestivum = test: Crop compatibility post-emergence (greenhouse pot trial)
In short: as §2

Alopecurus myosuroides [25] = test: Herbicidal action pre-emergence (greenhouse pot trial); conditions: application rate 320 g/ha, scored after about 3 weeks
In short: as §3

Zea mays [26] = test: Crop compatibility pre-emergence (greenhouse pot trial); conditions: effect vs untreated controls
In short: (§4)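 Pre-emergence: seeds sown in pots, covered with soil, then WP or EC formulations sprayed on soil surface as aqueous suspension/emulsion with 0.5% additive at 600 L/ha water. Greenhouse; crop damage scored visually as % versus untreated controls after about 3 weeks (100% = dead).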

Glycine max [27] = test: as above; conditions: application rate 80 g/ha, effect vs untreated controls
In short: as §4

Hordeum murinum [28] = test: Herbicidal action post-emergence (greenhouse pot trial); conditions: application rate 80 g/ha, scored visually after about 3 weeks vs untreated controls
In short: as §1

SMILES	Abutilon theophrasti (Efficacy in %) (Abutilon theophrasti [1]) [%]	Amaranthus retroflexus (Efficacy in %) (Amaranthus retroflexus [2]) [%]	Matricaria inodora (Efficacy in %) (Matricaria inodora [4]) [%]	Pharbitis purpurea (Efficacy in %) (Pharbitis purpurea [5]) [%]	Polygonum convolvulus (Efficacy in %) (Polygonum convolvulus) [%]	Veronica persica (Efficacy in %) (Veronica persica [8]) [%]	Viola tricolor (Efficacy in %) (Viola tricolor [9]) [%]	Abutilon theophrasti (Efficacy in %) (Abutilon theophrasti [12]) [%]	Amaranthus retroflexus (Efficacy in %) (Amaranthus retroflexus [13]) [%]	Avena fatua (Efficacy in %) (Avena fatua) [%]	Cyperus esculentus (Efficacy in %) (Cyperus esculentus) [%]	Echinochloa crus-galli (Efficacy in %) (Echinochloa crus-galli [14]) [%]	Hordeum murinum (Efficacy in %) (Hordeum murinum [15]) [%]	Lolium rigidum (Efficacy in %) (Lolium rigidum [16]) [%]	Matricaria inodora (Efficacy in %) (Matricaria inodora [17]) [%]	Pharbitis purpurea (Efficacy in %) (Pharbitis purpurea [18]) [%]	Setaria viridis (Efficacy in %) (Setaria viridis [19]) [%]	Stellaria media (Efficacy in %) (Stellaria media [20]) [%]	Veronica persica (Efficacy in %) (Veronica persica [21]) [%]	Viola tricolor (Efficacy in %) (Viola tricolor [22]) [%]	also measured
COCCOC(=O)CSc1cc(-n2c(=O)cc(C(F)(F)F)n(C)c2=O)c(F)cc1Cl [I.8-1]	100	100	100	100	100	100	100	100	100	80	90	100	90	90	100	100	100	100	100	100	Echinochloa crus-galli (Efficacy in %) (Echinochloa crus-galli [3]): 100%; Setaria viridis (Efficacy in %) (Setaria viridis [6]): 100%; Stellaria media (Efficacy in %) (Stellaria media [7]): 100%; Glycine max (Efficacy in %) (Glycine max [10]; application rate 5 g/ha): 20%; Oryza sativa (Efficacy in %) (Oryza sativa; application rate 5 g/ha): 10%; Zea mays (Efficacy in %) (Zea mays [11]; application rate 5 g/ha): 20%
COCCOC(=O)C(C)Sc1cc(-n2c(=O)cc(C(F)(F)F)n(C)c2=O)c(F)cc1Cl (stereo not drawn) [I.1-1]	100	100	100	100	100	100	100	100	100	90	100	100	90	80	100	100	100	100	100	100	Alopecurus myosuroides (Efficacy in %) (Alopecurus myosuroides [23]): 80%; Echinochloa crus-galli (Efficacy in %) (Echinochloa crus-galli [3]): 100%; Lolium rigidum (Efficacy in %) (Lolium rigidum [24]): 90%; Setaria viridis (Efficacy in %) (Setaria viridis [6]): 100%; Stellaria media (Efficacy in %) (Stellaria media [7]): 100%; Oryza sativa (Efficacy in %) (Oryza sativa; application rate 5 g/ha): 20%; Triticum aestivum (Efficacy in %) (Triticum aestivum; application rate 5 g/ha): 20%; Zea mays (Efficacy in %) (Zea mays [11]; application rate 20 g/ha): 20%; Alopecurus myosuroides (Efficacy in %) (Alopecurus myosuroides [25]): 80%; Zea mays (Efficacy in %) (Zea mays [26]; application rate 20 g/ha): 20%
CC(Sc1cc(-n2c(=O)cc(C(F)(F)F)n(C)c2=O)c(F)cc1Cl)C(=O)NCC1CS(=O)(=O)CCO1 (stereo not drawn) [I.1-333]	100	100	100	80	100	80	100	100	100	100	80	100	100	100	100	100	90	100	100	100	Glycine max (Efficacy in %) (Glycine max [10]; application rate 20 g/ha): 20%; Oryza sativa (Efficacy in %) (Oryza sativa; application rate 80 g/ha): 0%; Triticum aestivum (Efficacy in %) (Triticum aestivum; application rate 20 g/ha): 10%; Zea mays (Efficacy in %) (Zea mays [11]; application rate 80 g/ha): 0%; Alopecurus myosuroides (Efficacy in %) (Alopecurus myosuroides [25]): 100%; Glycine max (Efficacy in %) (Glycine max [27]): 0%; Zea mays (Efficacy in %) (Zea mays [26]; application rate 80 g/ha): 20%
CC(Sc1cc(-n2c(=O)cc(C(F)(F)F)n(C)c2=O)c(F)cc1Cl)C(=O)OCC1CCCO1 (stereo not drawn) [I.1-71]	100	100	100	100	100	100	100	100	100	90	80	100	90	90	100	100	100	100	100	100	Echinochloa crus-galli (Efficacy in %) (Echinochloa crus-galli [3]): 100%; Hordeum murinum (Efficacy in %) (Hordeum murinum [28]): 80%; Setaria viridis (Efficacy in %) (Setaria viridis [6]): 100%; Stellaria media (Efficacy in %) (Stellaria media [7]): 100%; Glycine max (Efficacy in %) (Glycine max [10]; application rate 20 g/ha): 20%; Oryza sativa (Efficacy in %) (Oryza sativa; application rate 5 g/ha): 20%; Triticum aestivum (Efficacy in %) (Triticum aestivum; application rate 80 g/ha): 20%; Zea mays (Efficacy in %) (Zea mays [11]; application rate 80 g/ha): 20%; Alopecurus myosuroides (Efficacy in %) (Alopecurus myosuroides [25]): 100%; Glycine max (Efficacy in %) (Glycine max [27]): 0%; Zea mays (Efficacy in %) (Zea mays [26]; application rate 80 g/ha): 0%
